From patent publication US20130309768A1, “METHOD FOR CULTURING HUMAN PLURIPOTENT STEM CELLS” (NATIONAL INSTITUTE OF BIOMEDICAL INNOVATION, priority 2011, published 2013)
No end group written: not given here. *: point of attachment. Myristoyl = CCCCCCCCCCCCCC(=O)*

Columns and labels:
human ES cells = conditions: cited from earlier work
[1] = test system: human iPS cell line Tic (JCRB1331); experiment: Culture with protein kinase C peptide inhibitor, alkaline phosphatase staining; format: cell-based; conditions: fourth day, FIG. 9
Method: Media comprising the activin-containing supplement+hESF-grow medium or the activin-free supplement+hESF-grow medium with fibronectin coating described in Example 3 and 0, 1, 2.5, 5, or 10 μM each of myristoylated protein kinase C peptide inhibitor (Myr. […]) (from Promega Corporation) added thereto were prepared, and used as first media containing a protein kinase C inhibitor and second media containing a protein kinase C inhibitor.
Human iPS cell line Tic (JCRB1331) was dispersed in the first medium containing a protein kinase C inhibitor and culturing was started. 60 hours after starting the culturing of the cell line Tic, a medium change into the second medium containing a protein kinase C inhibitor was conducted. Twice of medium changes were further conducted every 24 hours. On the fourth day after starting the culturing, the cells were fixed with 4.5 mM citric acid, 2.25 mM sodium citrate, 3 mM sodium chloride, 65% methanol and 4% paraformaldehyde for five minutes. Alkaline phosphatase staining was conducted with FastRed substrate kit (from Sigma Chemical Co.) according to the guidance of the manufacturer.

[2] = test system: ERK (extracellular signal-regulated kinases); conditions: addition of activin; cited from earlier work
[3] = test system: human ES cell line KhES-1; experiment: Cell adhesion to ECM-coated microplates (crystal violet, absorbance 595 nm); format: cell-based; conditions: coating 0.01-10 μg/cm^2, hESF9 medium, two days culture; FIG. 1(a)
Method: (§1) The inventors studied on the substitution of ECMs such as collagen I, gelatin, laminin, fibronectin, and the like, which are recently used as a cell support in place of feeder cells, from animal-derived materials to animal product-free ingredients. Studies were conducted with human ES cell line KhES-1 (Laboratory of embryonic stem Cell research Center, Institute for Frontier Medical Sciences, Kyoto University), and human iPS cell line Tic (JCRB1331) (JSCB cell bank, National Institute of Biomedical Innovation); and the embryonal cancer cell line PA-1 (JCRB9061) (JSCB cell bank, National institute of Biomedical Innovation) was used as a comparative example.
(§2) Using 96 well microplates (from Corning Incorporated), each of collagen I (from Nitta Gelatin Inc.), gelatin (from Sigma Chemical Co.), laminin (from Sigma Chemical Co.), and fibronectin (from Sigma Chemical Co.) was treated at 37° C. for 3 hours, with avoiding being dried, to coat the microplates with each at 0.01, 0.05, 0.1, 0.5, 1, 5 and 10 μg/cm^2. The aforementioned hESF9 medium was added, and then human ES cell line KhES-1 and human iPS cell line Tic (JCRB1331), and embryonal cancer cell line PA-1 (JCRB9061) were seeded at […], after counting their cell numbers. After culturing the cells for two days (or culturing the embryonal cancer cell line PA-1 (JCRB9061) for one hour), the cells were fixed and nuclei of adhered cells were stained with 0.4% crystal violet (from Sigma Chemical Co.) dissolved in methanol for 30 minutes. The microplates were washed and then dried. The cells were lysed with 0.1 M sodium citrate dissolved in 50% methanol, and absorbance at 595 nm was measured with a microplate reader (model 550, from Bio-Rad Laboratories, Inc.).

[4] = test system: human iPS cell line Tic (JCRB1331); experiment: as above; format: cell-based; conditions: coating 0.01-10 μg/cm^2, hESF9 medium, two days culture; FIG. 1(b)
Method: as §1, §2

[5] = test system: embryonal cancer cell line PA-1 (JCRB9061); experiment: Cell adhesion to ECM-coated microplates (comparative example); format: cell-based; conditions: hESF9 medium, one hour culture; FIG. 1(c)
Method: as §1, §2
Embryonal cancer cell line PA-1 (JCRB9061) was studied on the adhesion ability to the various ECNs described above.

cell line H9 (WA09) = experiment: Culture with fibronectin added to the medium, cell appearance; format: cell-based, human; conditions: 0, 20, 40, 80, 160, 320 μg/well tested; 9.6 cm^2 well, 3 mL medium; FIG. 8
Method: (§3) In a 6 well plate (from Becton, Dickinson and Company), first media containing fibronectin were prepared by adding 10 μg/mL recombinant human insulin, 5 μg/mL recombinant human transferrin (apo), 10 μM 2-mercaptoethanol, 10 μM 2-ethanolamine, 20 nM sodium selenite, 9.4 μg/mL oleic acid complexed with 1 mg/mL recombinant human albumin, and 2 ng/mL recombinant human activin to the hESF-grow medium, and further adding 0, 20, 40, 80, 160, or 320 μg/well of bovine fibronectin to each well.
as §3, with “second” for “first”, “adding” for “adding 10 μg/mL recombinant human insulin,”, “selenate and” for “selenite,”, “albumin” for “human albumin, and 2 ng/mL recombinant human activin”
The cell line H9 (WA09) was cultured similarly to the culturing on fibronectin coating described above, except that the first medium and the second medium described in the above section on fibronectin coating were replaced with the first media containing fibronectin and the second media containing fibronectin, and cells were cultured at varying concentrations of fibronectin in respective wells. The area of 1 well in the used plate was 9.6 cm^2, and 3 mL each of the medium was added.

murine ES cells = conditions: serum-free medium; cited from earlier work
pluripotent stem cells = experiment: Cytokeratin expression of cells cultured on laminin; format: cell-based, human

With `O=S(=O)(O)CCN1CCN(CCO)CC1` [HEPES] as the compound, how does the “effect on the maintenance of human ES cells” value (human ES cells; added into serum-free medium) read?
The value was “very adverse effect”.

Which results are given for “Myr. RFARKGALRQKNV (Myristoyl-RFARKGALRQKNV)”?
proliferation ([1]; 1 to 2.5 μM in medium): increase in proliferation; suppression of differentiation compared to no inhibitor ([1]; 1 to 5 μM in medium): further suppression of differentiation

For activin, which “differentiation induction into the nerve or mesendoderm” value (human ES cells; addition of activin) is on record?
The value was “promotes differentiation induction”.

And the ERK activation [2]?
The ERK activation was “activates ERK”.

Which adhesion ability [3] does the source give for collagen here?
The adhesion ability was “weak adhesion ability”.

And the adhesion ability [4]?
Its adhesion ability is “weak adhesion ability”.

What about the adhesion ability [5] of the same compound?
The adhesion ability was “strongest adhesion ability”.

And the “coating concentration at which adhesion ability was strongest” value [5]?
The value was “about 10 μg/cm^2”.

Which results are given for fibronectin?
adhesion ability [3]: strongest adhesion ability; adhesion ability [4]: strongest adhesion ability; amount of fibronectin at which the undifferentiated state was best maintained (cell line H9 (WA09)): 80 μg/well; effect on undifferentiated state / differentiation (murine ES cells): act to promote the differentiation

What does the source list for gelatin?
adhesion ability [3]: weak adhesion ability; adhesion ability [4]: weak adhesion ability; adhesion ability [5]: strongest adhesion ability; coating concentration at which adhesion ability was strongest [5]: about 10 μg/cm^2

With heparin as the compound, how does the “proliferation of ES cells” value (human ES cells; added in the absence of FGF-2) read?
The value was “promotes the proliferation”.

With laminin as the compound, how does the adhesion ability [3] read?
The adhesion ability was “strongest adhesion ability”.

And the adhesion ability [4]?
Its adhesion ability is “strongest adhesion ability”.

And the cytokeratin expression (pluripotent stem cells)?
The cytokeratin expression was “express cytokeratin strongly”.

What about the “effect on undifferentiated state / differentiation” value (murine ES cells) of the same compound?
Its value is “act to promote the differentiation”.
